Reference: patent US7618816B2, “Metal-binding therapeutic peptides” (Ontherix, Inc., priority 2005, dated 2009)
Where no end group is shown, it is not given here.

Columns and labels:
Assay in all cases: Uptake of SA-HRP::MBD peptide complexes
Type in all cases: cell-based, human
231 = tested on: 231
Protocol: (§1) HEK293 kidney cell line and 54 tumor cell lines obtained from the National Cancer Institute and passaged in RPMI1640 cell culture medium supplemented with 10% fetal bovine serum and 10 uM FeCl2. Uptake of streptavidin-horseradish peroxidase (SA-HRP) conjugate and of various SA-HRP::MBD peptide complexes was determined as described (Singh et al. J Biol Chem. 279 (1):477-87 [2004]) using biotinylated MBD9 ([…]) (SEQ ID NO: 10) and MBD21 ([…]) (SEQ ID NO: 4) peptides and SA-HRP. Nuclear and cytoplasmic localization of these proteins was also determined in each case. […] In order to establish the underlying molecular mechanism for this variability, we cross-linked MBD21 peptide to the following cell surface markers at 4 degrees Celsius as previously described (Singh et al. J Biol Chem. 279 (1):477-87 [2004]): transferrin receptor 1, caveolin 1, PCNA, integrins alpha v, 2, 5 and 6, integrins beta 1, 3 and 5. […] Based on the strength of these correlations, it was possible to derive crude predictive formulae for MBD-mediated uptake based on the rate of cross-linking to surface markers. Such predictive formulas could form the basis for a diagnostic procedure to select appropriate targets for MBD-based therapies.

786-O = tested on: 786-O
Protocol: as §1

A498 = tested on: A498
Protocol: as §1

A549 = tested on: A549
Protocol: as §1

A704 = tested on: A704
Protocol: as §1

CAKI-1 = tested on: CAKI-1
Protocol: as §1

CCRF-CEM = tested on: CCRF-CEM
Protocol: as §1

CHA-59 = tested on: CHA-59
Protocol: as §1

COLO 205 = tested on: COLO 205
Protocol: as §1

DU-145 = tested on: DU-145
Protocol: as §1

HCT-15 = tested on: HCT-15
Protocol: as §1

HOP 18 = tested on: HOP 18
Protocol: as §1

HOP 92 = tested on: HOP 92
Protocol: as §1

HT-29 = tested on: HT-29
Protocol: as §1

KM12 = tested on: KM12
Protocol: as §1

Lewis Lung = tested on: Lewis Lung
Protocol: as §1

MCF 7 = tested on: MCF 7
Protocol: as §1

NCI-H23 = tested on: NCI-H23
Protocol: as §1

NCI-H460 = tested on: NCI-H460
Protocol: as §1

NCI-H522 = tested on: NCI-H522
Protocol: as §1

NHI-H322M = tested on: NHI-H322M
Protocol: as §1

OVCAR-3 = tested on: OVCAR-3
Protocol: as §1

OVCAR-4 = tested on: OVCAR-4
Protocol: as §1

OVCAR-5 = tested on: OVCAR-5
Protocol: as §1

OVCAR-8 = tested on: OVCAR-8
Protocol: as §1

RPMI 8226 = tested on: RPMI 8226
Protocol: as §1

SHP-77 = tested on: SHP-77
Protocol: as §1

SK-0V-3 = tested on: SK-0V-3
Protocol: as §1

SN12C = tested on: SN12C
Protocol: as §1

SW-620 = tested on: SW-620
Protocol: as §1

TK-10 = tested on: TK-10
Protocol: as §1

WIDR = tested on: WIDR
Protocol: as §1

Sequence: KKGFYKKKQCRPSKGRKRGFCWAVDKYG (cysteine pairing not given here; also: biotinylated (position not given here), complexed with SA-HRP) [MBD21]
- SA-HRP uptake, Cyt. (231; 231, cytoplasmic): 3.4 ng
- SA-HRP uptake, Nuc. (231; 231, nuclear): 1.1 ng
- SA-HRP uptake, Cyt. (786-O; cytoplasmic): 1.8 ng
- SA-HRP uptake, Nuc. (786-O; nuclear): 4.8 ng
- SA-HRP uptake, Cyt. (A498; A498, cytoplasmic): 35.3 ng
- SA-HRP uptake, Nuc. (A498; A498, nuclear): 33.4 ng
- SA-HRP uptake, Cyt. (A549; A549, cytoplasmic): 4.4 ng
- SA-HRP uptake, Nuc. (A549; A549, nuclear): 1.3 ng
- SA-HRP uptake, Cyt. (A704; A704, cytoplasmic): 4.5 ng
- SA-HRP uptake, Nuc. (A704; A704, nuclear): 1.2 ng
- SA-HRP uptake, Cyt. (CAKI-1; CAKI-1, cytoplasmic): 2.8 ng
- SA-HRP uptake, Nuc. (CAKI-1; CAKI-1, nuclear): 1.0 ng
- SA-HRP uptake, Cyt. (CCRF-CEM; cytoplasmic): 41.3 ng
- SA-HRP uptake, Nuc. (CCRF-CEM; nuclear): 2.0 ng
- SA-HRP uptake, Cyt. (CHA-59; CHA-59, cytoplasmic): 8.2 ng
- SA-HRP uptake, Nuc. (CHA-59; CHA-59, nuclear): 2.1 ng
- SA-HRP uptake, Cyt. (COLO 205; COLO 205, cytoplasmic): 2.1 ng
- SA-HRP uptake, Nuc. (COLO 205; COLO 205, nuclear): 0.9 ng
- SA-HRP uptake, Cyt. (DU-145; DU-145, cytoplasmic): 25.7 ng
- SA-HRP uptake, Nuc. (DU-145; DU-145, nuclear): 3.3 ng
- SA-HRP uptake, Cyt. (HCT-15; HCT-15, cytoplasmic): 2.7 ng
- SA-HRP uptake, Nuc. (HCT-15; HCT-15, nuclear): 0.7 ng
- SA-HRP uptake, Cyt. (HOP 18; HOP 18, cytoplasmic): 10.3 ng
- SA-HRP uptake, Nuc. (HOP 18; HOP 18, nuclear): 3.1 ng
- SA-HRP uptake, Cyt. (HOP 92; HOP 92, cytoplasmic): 1.5 ng
- SA-HRP uptake, Nuc. (HOP 92; HOP 92, nuclear): 1.6 ng
- SA-HRP uptake, Cyt. (HT-29; HT-29, cytoplasmic): 3.5 ng
- SA-HRP uptake, Nuc. (HT-29; HT-29, nuclear): 9.5 ng
- SA-HRP uptake, Cyt. (KM12; KM12, cytoplasmic): 2.1 ng
- SA-HRP uptake, Nuc. (KM12; KM12, nuclear): 0.7 ng
- SA-HRP uptake, Cyt. (Lewis Lung; cytoplasmic): 6.4 ng
- SA-HRP uptake, Nuc. (Lewis Lung; nuclear): 3.4 ng
- SA-HRP uptake, Cyt. (MCF 7; MCF 7, cytoplasmic): 11.1 ng
- SA-HRP uptake, Nuc. (MCF 7; MCF 7, nuclear): 5.8 ng
- SA-HRP uptake, Cyt. (NCI-H23; NCI-H23, cytoplasmic): 8.0 ng
- SA-HRP uptake, Nuc. (NCI-H23; NCI-H23, nuclear): 8.7 ng
- SA-HRP uptake, Cyt. (NCI-H460; NCI-H460, cytoplasmic): 11.6 ng
- SA-HRP uptake, Nuc. (NCI-H460; NCI-H460, nuclear): 5.8 ng
- SA-HRP uptake, Cyt. (NCI-H522; NCI-H522, cytoplasmic): 5.1 ng
- SA-HRP uptake, Nuc. (NCI-H522; NCI-H522, nuclear): 1.7 ng
- SA-HRP uptake, Cyt. (NHI-H322M; cytoplasmic): 6.0 ng
- SA-HRP uptake, Nuc. (NHI-H322M; nuclear): 8.3 ng
- SA-HRP uptake, Cyt. (OVCAR-3; OVCAR-3, cytoplasmic): <0.04 ng
- SA-HRP uptake, Nuc. (OVCAR-3; OVCAR-3, nuclear): 3.2 ng
- SA-HRP uptake, Cyt. (OVCAR-4; OVCAR-4, cytoplasmic): 6.1 ng
- SA-HRP uptake, Nuc. (OVCAR-4; OVCAR-4, nuclear): 1.3 ng
- SA-HRP uptake, Cyt. (OVCAR-5; OVCAR-5, cytoplasmic): 1.3 ng
- SA-HRP uptake, Nuc. (OVCAR-5; OVCAR-5, nuclear): 1.5 ng
- SA-HRP uptake, Cyt. (OVCAR-8; OVCAR-8, cytoplasmic): 6.1 ng
- SA-HRP uptake, Nuc. (OVCAR-8; OVCAR-8, nuclear): 13.1 ng
- SA-HRP uptake, Cyt. (RPMI 8226; RPMI 8226, cytoplasmic): 3.6 ng
- SA-HRP uptake, Nuc. (RPMI 8226; RPMI 8226, nuclear): 0.0 ng
- SA-HRP uptake, Cyt. (SHP-77; SHP-77, cytoplasmic): 6.6 ng
- SA-HRP uptake, Nuc. (SHP-77; SHP-77, nuclear): 2.7 ng
- SA-HRP uptake, Cyt. (SK-0V-3; SK-0V-3, cytoplasmic): <0.04 ng
- SA-HRP uptake, Nuc. (SK-0V-3; SK-0V-3, nuclear): <0.04 ng
- SA-HRP uptake, Cyt. (SN12C; cytoplasmic): 6.7 ng
- SA-HRP uptake, Nuc. (SN12C; nuclear): 6.4 ng
- SA-HRP uptake, Cyt. (SW-620; SW-620, cytoplasmic): 6.3 ng
- SA-HRP uptake, Nuc. (SW-620; SW-620, nuclear): 2.3 ng
- SA-HRP uptake, Cyt. (TK-10; TK-10, cytoplasmic): 5.0 ng
- SA-HRP uptake, Nuc. (TK-10; TK-10, nuclear): 2.2 ng
- SA-HRP uptake, Cyt. (WIDR; cytoplasmic): 2.8 ng
- SA-HRP uptake, Nuc. (WIDR; nuclear): 1.0 ng
